Results published in patent EP4454710A1, “BISPECIFIC FUSION PROTEINS WITH IMMUNOSUPPRESSIVE ACTIVITY” (Universitat de Barcelona, priority 2023, dated 2024).

What was measured:
Assay type in all cases: cell-based, human
Conditions in all cases: Tacrolimus 10 ng/mL (Table 3); 7 days MLR; mean +/- SD
CD3^+ cells = assay: In vitro T cell proliferation assay (allogenic PBMC co-culture, MLR), CD3+ cells
Text: (§1) Frozen PBMC were thawed in RPMI medium (Gibco, Thermofisher scientific, Waltham, Massachusetts, USA) with 20% fetal bovine serum (Cytiva, Little Chalfont, Buckinghamshire, United Kingdom). 200 000 PBMC from an individual, stained with CelltraceTM Violet Dye (Thermofisher scientific), were cocultured with 200 000 PBMC from another individual stained with CelltraceTM Farr Red Dye (Thermofisher Scientific) in RPMI medium supplemented with 10 % FBS and penicilline-streptomycine (Cultek, Madrid, Spain) for 7 days. […] Cells were analyzed using a LSRFortessaTM flow cytometer with DIVA (BD Biosciences) and FlowJo Softwares (Tree Star, Ashland, OR, USA). For each condition, we assessed the proportion of PBMC with low Violet or Farr Red dye staining among CD3^+ cells, C3^+CD4^+ cells and CD3^+CD4^+PD-1^+ cells and proceeded to normalization to the MLR without drug condition.

CD3^+CD4^+ cells = assay: In vitro T cell proliferation assay (allogenic PBMC co-culture, MLR), CD3+CD4+ cells
Text: as §1

CD3^+CD4^+PD-1^+ cells = assay: In vitro T cell proliferation assay (allogenic PBMC co-culture, MLR), CD3+CD4+PD-1+ cells
Text: as §1

For C=CC[C@@H]1/C=C(\C)C[C@H](C)C[C@H](OC)[C@H]2O[C@@](O)(C(=O)C(=O)N3CCCC[C@H]3C(=O)O[C@H](/C(C)=C/[C@@H]3CC[C@@H](O)[C@H](OC)C3)[C@H](C)[C@@H](O)CC1=O)[C@H](C)C[C@@H]2OC [Tacrolimus], the “Proliferation of CD3^+ cells (% of proliferation compared with the condition without drug)” value (CD3^+ cells) was 19.35 +/- 14.78%, the “Proliferation of CD3^+CD4^+ cells (% of proliferation compared with the condition without drug)” value (CD3^+CD4^+ cells) was 23.34 +/- 20.03% and the “Proliferation of CD3^+CD4^+PD-1^+ cells (% of proliferation compared with the condition without drug)” value (CD3^+CD4^+PD-1^+ cells) was 25.65 +/-20.39%.
